{"source": "the NIST ThermoML archive (doi:10.1016/j.tca.2016.03.026)", "key": {"[1]": {"conditions": "100 kPa, Liquid; for speed of sound: Frequency=3 MHz, Sing-around technique in a fixed-path interferometer; for mass density: Vibrating tube method"}, "[2]": {"assay": "refractive index (Na D-line) (dimensionless)", "conditions": "100 kPa, Liquid, Standard Abbe refractometry"}, "[3]": {"assay": "xn = mol fraction of the nth substance listed", "conditions": "100 kPa, Liquid, x2 = 0; for speed of sound: Frequency=3 MHz, Sing-around technique in a fixed-path interferometer; for mass density: Vibrating tube method"}, "[4]": {"assay": "refractive index (Na D-line) (dimensionless); xn = mol fraction of the nth substance listed", "conditions": "100 kPa, Liquid, Standard Abbe refractometry, x2 = 0"}}, "note": "Numbers after ± are expanded uncertainties.", "data": [{"smiles": "CC(C)CO", "note": "[2-methyl-1-propanol]", "values": [{"measurement": "speed of sound", "setting": "[1]; 298.15 K", "value": "1189 ± 1.4", "unit": "m/s"}, {"measurement": "mass density", "setting": "[1]; 298.15 K", "value": "797.82 ± 0.22", "unit": "kg/m3"}, {"measurement": "speed of sound", "setting": "[1]; 308.15 K", "value": "1155.9 ± 1.3", "unit": "m/s"}, {"measurement": "mass density", "setting": "[1]; 308.15 K", "value": "790.63 ± 0.23", "unit": "kg/m3"}, {"measurement": "speed of sound", "setting": "[1]; 318.15 K", "value": "1118.6 ± 1.3", "unit": "m/s"}, {"measurement": "mass density", "setting": "[1]; 318.15 K", "value": "781.98 ± 0.23", "unit": "kg/m3"}, {"measurement": "refractive index", "setting": "[2]; 298.15 K", "value": "1.39408 ± 0.0016"}, {"measurement": "refractive index", "setting": "[2]; 308.15 K", "value": "1.38925 ± 0.0016"}, {"measurement": "refractive index", "setting": "[2]; 318.15 K", "value": "1.38444 ± 0.0016"}]}, {"smiles": "CCCCO", "note": "[butan-1-ol] + CCCCCCCC[n+]1ccn(C)c1.F[B-](F)(F)F", "values": [{"measurement": "speed of sound", "setting": "[3]; 298.15 K", "value": "1242.4 ± 1.2", "unit": "m/s"}, {"measurement": "mass density", "setting": "[3]; 298.15 K", "value": "805.76 ± 0.2", "unit": "kg/m3"}, {"measurement": "speed of sound", "setting": "[3]; 308.15 K", "value": "1207.5 ± 1.2", "unit": "m/s"}, {"measurement": "mass density", "setting": "[3]; 308.15 K", "value": "798.05 ± 0.2", "unit": "kg/m3"}, {"measurement": "speed of sound", "setting": "[3]; 318.15 K", "value": "1171.5 ± 1.2", "unit": "m/s"}, {"measurement": "mass density", "setting": "[3]; 318.15 K", "value": "790.21 ± 0.2", "unit": "kg/m3"}, {"measurement": "refractive index", "setting": "[4]; 298.15 K", "value": "1.39728 ± 0.0016"}, {"measurement": "refractive index", "setting": "[4]; 308.15 K", "value": "1.39324 ± 0.0016"}, {"measurement": "refractive index", "setting": "[4]; 318.15 K", "value": "1.38911 ± 0.0016"}]}, {"smiles": "CC(C)CO", "note": "[2-methyl-1-propanol] + CCCCCCCC[n+]1ccn(C)c1.F[B-](F)(F)F", "values": [{"measurement": "speed of sound", "setting": "[3]; 298.15 K", "value": "1189 ± 1.4", "unit": "m/s"}, {"measurement": "mass density", "setting": "[3]; 298.15 K", "value": "797.82 ± 0.22", "unit": "kg/m3"}, {"measurement": "speed of sound", "setting": "[3]; 308.15 K", "value": "1155.9 ± 1.3", "unit": "m/s"}, {"measurement": "mass density", "setting": "[3]; 308.15 K", "value": "790.63 ± 0.23", "unit": "kg/m3"}, {"measurement": "speed of sound", "setting": "[3]; 318.15 K", "value": "1118.6 ± 1.3", "unit": "m/s"}, {"measurement": "mass density", "setting": "[3]; 318.15 K", "value": "781.98 ± 0.23", "unit": "kg/m3"}, {"measurement": "refractive index", "setting": "[4]; 298.15 K", "value": "1.39408 ± 0.0016"}, {"measurement": "refractive index", "setting": "[4]; 308.15 K", "value": "1.38925 ± 0.0016"}, {"measurement": "refractive index", "setting": "[4]; 318.15 K", "value": "1.38444 ± 0.0016"}]}, {"smiles": "CCCCCCCC[n+]1ccn(C)c1.F[B-](F)(F)F", "note": "[1-methyl-3-octylimidazolium tetrafluoroborate]", "values": [{"measurement": "speed of sound", "setting": "[1]; 298.15 K", "value": "1485.1 ± 2.3", "unit": "m/s"}, {"measurement": "mass density", "setting": "[1]; 298.15 K", "value": "1105.02 ± 1.1", "unit": "kg/m3"}, {"measurement": "speed of sound", "setting": "[1]; 308.15 K", "value": "1458.5 ± 2.3", "unit": "m/s"}, {"measurement": "mass density", "setting": "[1]; 308.15 K", "value": "1098.32 ± 1", "unit": "kg/m3"}, {"measurement": "speed of sound", "setting": "[1]; 318.15 K", "value": "1433.2 ± 2.3", "unit": "m/s"}, {"measurement": "mass density", "setting": "[1]; 318.15 K", "value": "1091.54 ± 1", "unit": "kg/m3"}, {"measurement": "refractive index", "setting": "[2]; 298.15 K", "value": "1.43253 ± 0.0017"}, {"measurement": "refractive index", "setting": "[2]; 308.15 K", "value": "1.42984 ± 0.0017"}, {"measurement": "refractive index", "setting": "[2]; 318.15 K", "value": "1.42715 ± 0.0017"}]}, {"smiles": "CCCCO", "note": "[butan-1-ol]", "values": [{"measurement": "speed of sound", "setting": "[1]; 298.15 K", "value": "1242.4 ± 1.2", "unit": "m/s"}, {"measurement": "mass density", "setting": "[1]; 298.15 K", "value": "805.76 ± 0.2", "unit": "kg/m3"}, {"measurement": "speed of sound", "setting": "[1]; 308.15 K", "value": "1207.5 ± 1.2", "unit": "m/s"}, {"measurement": "mass density", "setting": "[1]; 308.15 K", "value": "798.05 ± 0.2", "unit": "kg/m3"}, {"measurement": "speed of sound", "setting": "[1]; 318.15 K", "value": "1171.5 ± 1.2", "unit": "m/s"}, {"measurement": "mass density", "setting": "[1]; 318.15 K", "value": "790.21 ± 0.2", "unit": "kg/m3"}, {"measurement": "refractive index", "setting": "[2]; 298.15 K", "value": "1.39728 ± 0.0016"}, {"measurement": "refractive index", "setting": "[2]; 308.15 K", "value": "1.39324 ± 0.0016"}, {"measurement": "refractive index", "setting": "[2]; 318.15 K", "value": "1.38911 ± 0.0016"}]}, {"smiles": "CC(C)(C)O", "note": "[2-methylpropan-2-ol] + CCCCCCCC[n+]1ccn(C)c1.F[B-](F)(F)F", "values": [{"measurement": "speed of sound", "setting": "[3]; 298.15 K", "value": "1121.4 ± 1.3", "unit": "m/s"}, {"measurement": "mass density", "setting": "[3]; 298.15 K", "value": "780.72 ± 0.23", "unit": "kg/m3"}, {"measurement": "speed of sound", "setting": "[3]; 308.15 K", "value": "1082 ± 1.3", "unit": "m/s"}, {"measurement": "mass density", "setting": "[3]; 308.15 K", "value": "770.21 ± 0.23", "unit": "kg/m3"}, {"measurement": "speed of sound", "setting": "[3]; 318.15 K", "value": "1038.2 ± 1.3", "unit": "m/s"}, {"measurement": "mass density", "setting": "[3]; 318.15 K", "value": "759.5 ± 0.23", "unit": "kg/m3"}, {"measurement": "refractive index", "setting": "[4]; 298.15 K", "value": "1.38488 ± 0.0016"}, {"measurement": "refractive index", "setting": "[4]; 308.15 K", "value": "1.37985 ± 0.0016"}, {"measurement": "refractive index", "setting": "[4]; 318.15 K", "value": "1.37402 ± 0.0016"}]}, {"smiles": "CC(C)(C)O", "note": "[2-methylpropan-2-ol]", "values": [{"measurement": "speed of sound", "setting": "[1]; 298.15 K", "value": "1121.4 ± 1.3", "unit": "m/s"}, {"measurement": "mass density", "setting": "[1]; 298.15 K", "value": "780.72 ± 0.23", "unit": "kg/m3"}, {"measurement": "speed of sound", "setting": "[1]; 308.15 K", "value": "1082 ± 1.3", "unit": "m/s"}, {"measurement": "mass density", "setting": "[1]; 308.15 K", "value": "770.21 ± 0.23", "unit": "kg/m3"}, {"measurement": "speed of sound", "setting": "[1]; 318.15 K", "value": "1038.2 ± 1.3", "unit": "m/s"}, {"measurement": "mass density", "setting": "[1]; 318.15 K", "value": "759.5 ± 0.23", "unit": "kg/m3"}, {"measurement": "refractive index", "setting": "[2]; 298.15 K", "value": "1.38488 ± 0.0016"}, {"measurement": "refractive index", "setting": "[2]; 308.15 K", "value": "1.37985 ± 0.0016"}, {"measurement": "refractive index", "setting": "[2]; 318.15 K", "value": "1.37402 ± 0.0016"}]}]}
